The record followed here is patent publication US9044491B2, “Method for improving blood flow using stilbenoid derivatives” (The Board of Trustees of the University of Arkansas, priority 2010, dated 2015).

The subject of one data set is CLP mice. The experiment in a line: Histology of renal tissue (PAS staining) after CLP. Type of data set: in vivo, mouse. The settings on record: two-dose regimen. An excerpt: Renal tissue was also stained with periodic acid-Schiff staining to show the amount of injury to the tissue. The periodic acid-Schiff (PAS) stained sections were scored in a blinded, semi-quantitative manner. For each animal, at least 10 high power (400×) fields were examined. […] Representative PAS-stained sections are shown in FIG. 15, panels (A)-(C) 200× magnification and the tissue scores are shown in (D). CLP caused mild morphological changes characterized by […], cast formation, vacuolization, and tubule dilation. These changes were prevented by the two-dose regimen of tRes.

The next data set deals with T1, human UGT1A1 (Homo sapiens, UniProt P22309).
T1 sequence (P22309 26-533): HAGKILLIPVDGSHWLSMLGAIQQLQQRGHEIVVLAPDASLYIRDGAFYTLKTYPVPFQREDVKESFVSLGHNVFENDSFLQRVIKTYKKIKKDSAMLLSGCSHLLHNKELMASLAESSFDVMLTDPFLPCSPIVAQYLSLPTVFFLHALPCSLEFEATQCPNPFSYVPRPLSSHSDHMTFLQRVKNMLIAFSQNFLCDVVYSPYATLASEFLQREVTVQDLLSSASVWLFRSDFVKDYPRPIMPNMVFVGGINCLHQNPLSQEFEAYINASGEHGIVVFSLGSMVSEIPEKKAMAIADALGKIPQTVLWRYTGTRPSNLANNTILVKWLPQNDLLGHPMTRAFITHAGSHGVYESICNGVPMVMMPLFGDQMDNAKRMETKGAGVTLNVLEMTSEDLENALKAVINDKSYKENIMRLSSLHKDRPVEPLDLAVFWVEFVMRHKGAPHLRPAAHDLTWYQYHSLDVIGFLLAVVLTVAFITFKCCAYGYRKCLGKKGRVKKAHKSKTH
To be noted: 250 μM.

In a further data set the target is T2, human UGT1A10 (Homo sapiens, UniProt Q9HAW8).
T2 sequence (Q9HAW8 26-530): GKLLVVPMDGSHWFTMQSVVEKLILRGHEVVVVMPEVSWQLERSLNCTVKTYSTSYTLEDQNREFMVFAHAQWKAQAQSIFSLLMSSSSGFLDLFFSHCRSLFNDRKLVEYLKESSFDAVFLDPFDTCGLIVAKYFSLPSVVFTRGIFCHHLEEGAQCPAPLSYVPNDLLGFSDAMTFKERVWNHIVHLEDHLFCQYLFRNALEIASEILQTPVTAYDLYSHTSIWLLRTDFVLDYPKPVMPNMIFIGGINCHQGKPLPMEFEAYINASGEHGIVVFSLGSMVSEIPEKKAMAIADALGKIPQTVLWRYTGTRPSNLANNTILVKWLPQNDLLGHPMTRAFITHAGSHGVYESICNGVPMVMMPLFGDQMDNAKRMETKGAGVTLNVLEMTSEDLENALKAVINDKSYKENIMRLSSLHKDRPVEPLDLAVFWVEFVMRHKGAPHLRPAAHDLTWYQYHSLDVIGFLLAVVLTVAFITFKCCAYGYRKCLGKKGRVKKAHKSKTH
The settings on record: 250 μM.

SMILES strings stand for the structures.

Method for human UGT1A10: Eight human recombinant UGT1A isoforms (UGT1A1, 1A3, 1A4, 1A6, 1A7, 1A8, 1A9, and 1A10; 5 μg) expressed as His-tag proteins in baculovirus-infected Sf9 insect cells and human liver microsomes (from one donor; HL2; 50 μg) and human intestinal microsomes (from two donors; HI36 and HI41; 50 μg) were evaluated for their ability to glucuronidate these four compounds. The concentrations of the substrate and co-substrate (i.e., UDP-GlcUA) were 250 μM and 4 mM, respectively. Glucuronidation products were analyzed by HPLC and LCMS/MS.
The kinetic constants of the glucuronidation reactions using recombinant human UGT1A1 and UGT1A10 were determined by measuring the enzyme activity in the presence of increasing concentrations of substrate (see FIG. 2).

Take `Oc1ccc(/C=C/c2cc(O)cc(O)c2)cc1` [tRes, trans-resveratrol]: the “CLP-induced morphological changes of renal tissue (PAS)” value in the data set on CLP mice is recorded as “prevented”. Moreover, the “glucuronide formation by UGT1A1” value at human UGT1A1 is “glucuronidated to 3-O— and 4′-O-Glucs”. The “glucuronide formation by UGT1A10” value at human UGT1A10 is “glucuronidated to 3-O— and 4′-O-Glucs”.
